Assay results taken from patent US8906925B2, “Pyrido[4,3-B]indoles containing rigid moieties” (Medivation Technologies, Inc., priority 2008, dated 2014).

Legend:
[1] = target: T1, human recombinant serotonin (5-Hydroxytryptamine) 5-HT2C receptor (Homo sapiens, UniProt P28335); assay: Serotonin 5-HT2C radioligand binding ([3H]Mesulergine); details: read-out: Inhibition of ligand binding, Serotonin 5-HT2C (percent inhibition of specific binding); for inhibition at 1 µM: compound at 1 μM
T1 construct: expressed in transfected cells; host or cells: Chinese hamster ovary (CHO-K1) cells
T1 sequence (P28335 33-458): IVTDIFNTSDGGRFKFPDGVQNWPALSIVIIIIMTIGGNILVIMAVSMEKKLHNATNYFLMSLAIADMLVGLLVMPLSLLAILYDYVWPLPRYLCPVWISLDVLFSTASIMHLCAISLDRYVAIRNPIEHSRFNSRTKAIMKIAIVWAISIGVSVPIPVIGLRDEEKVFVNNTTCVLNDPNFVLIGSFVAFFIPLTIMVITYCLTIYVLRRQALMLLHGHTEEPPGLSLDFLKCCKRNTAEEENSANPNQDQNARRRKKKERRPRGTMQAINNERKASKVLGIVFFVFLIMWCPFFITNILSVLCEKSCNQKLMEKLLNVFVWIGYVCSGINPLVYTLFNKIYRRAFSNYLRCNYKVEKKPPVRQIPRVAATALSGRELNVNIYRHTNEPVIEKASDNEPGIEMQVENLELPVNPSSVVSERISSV
Procedure, shortened: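 Compounds tested at 1 μM or lower (1% DMSO vehicle) for displacement of 1 nM [3H]Mesulergine over 60 min at 25° C. Specific binding determined by filtration counting, with 1 μM Mianserin defining non-specific binding; values are percent inhibition.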

histamine receptor H1 = histamine receptor H1 (Homo sapiens, UniProt P35367); assay: Histamine H1 radioligand binding ([3H]Pyrilamine); details: for inhibition at 1 µM: read-out: Histamine Binding (1 μM) H1, percent inhibition of specific binding, 1 μM
Sequence of histamine receptor H1 (P35367 whole entry): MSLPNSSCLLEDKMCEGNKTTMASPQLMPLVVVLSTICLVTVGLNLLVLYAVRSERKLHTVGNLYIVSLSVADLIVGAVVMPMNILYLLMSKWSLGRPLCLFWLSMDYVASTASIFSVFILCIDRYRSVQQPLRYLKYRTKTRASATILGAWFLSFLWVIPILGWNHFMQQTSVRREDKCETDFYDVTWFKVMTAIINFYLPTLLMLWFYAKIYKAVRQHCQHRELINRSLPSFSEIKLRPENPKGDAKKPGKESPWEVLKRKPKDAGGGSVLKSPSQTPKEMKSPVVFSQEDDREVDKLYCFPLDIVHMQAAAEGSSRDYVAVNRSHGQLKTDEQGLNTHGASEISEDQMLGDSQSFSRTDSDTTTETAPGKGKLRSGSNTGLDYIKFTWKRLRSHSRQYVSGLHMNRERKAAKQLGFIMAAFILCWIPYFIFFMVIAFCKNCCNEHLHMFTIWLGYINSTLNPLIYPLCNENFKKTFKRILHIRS
Procedure, shortened: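 Values are percent inhibition of specific [3H]pyrilamine (1.2 nM) binding with compounds at ≤1 μM (1% DMSO vehicle); 180 min incubation at 25 °C, pH 7.4 Tris buffer, on CHO-expressed human H1 receptor; 1 μM pyrilamine defined nonspecific binding, bound ligand counted after filtration.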

[2] = target: T2, human recombinant adrenergic α2B receptor (Homo sapiens, UniProt P18089); assay: Adrenergic α2B radioligand binding ([3H]Rauwolscine); details: percent inhibition of specific binding; compound at 1 μM; read-out: Inhibition of ligand binding, Adrenergic α2B
T2 construct: expressed in transfected cells; host or cells: Chinese hamster ovary (CHO-K1) cells
T2 sequence (P18089 1-450): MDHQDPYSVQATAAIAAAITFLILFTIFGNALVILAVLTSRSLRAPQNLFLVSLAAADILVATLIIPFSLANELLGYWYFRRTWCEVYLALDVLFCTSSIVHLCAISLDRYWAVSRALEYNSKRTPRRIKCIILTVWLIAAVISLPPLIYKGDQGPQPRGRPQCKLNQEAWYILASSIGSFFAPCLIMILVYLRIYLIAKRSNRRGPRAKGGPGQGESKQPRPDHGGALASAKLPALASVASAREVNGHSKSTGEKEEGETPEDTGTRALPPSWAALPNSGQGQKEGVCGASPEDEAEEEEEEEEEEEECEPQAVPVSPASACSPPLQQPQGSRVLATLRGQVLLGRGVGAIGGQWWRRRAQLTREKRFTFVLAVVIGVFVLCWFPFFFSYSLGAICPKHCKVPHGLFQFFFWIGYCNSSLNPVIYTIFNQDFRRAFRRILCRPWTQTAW
Procedure, shortened: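 Membranes from CHO-K1 cells expressing the receptor were incubated with 2.5 nM [3H]Rauwolscine for 60 min at 25 °C in Tris-HCl buffer pH 7.4 with MgCl2, EDTA and BSA. Non-specific binding was defined with 10 μM prazosin. Compounds were tested at ≤1 μM in 1% DMSO and read out as % inhibition of specific binding after filtration.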

[3] = target: T3, human recombinant histamine H2 receptor (Homo sapiens, UniProt P25021); assay: Histamine H2 radioligand binding ([125I]Aminopotentidine); details: read-out: Histamine Binding (1 μM) H2, percent inhibition of specific binding, 1 μM
T3 construct: expressed in transfected cells; host or cells: Chinese hamster ovary (CHO) K1 cells
T3 sequence (P25021 whole entry): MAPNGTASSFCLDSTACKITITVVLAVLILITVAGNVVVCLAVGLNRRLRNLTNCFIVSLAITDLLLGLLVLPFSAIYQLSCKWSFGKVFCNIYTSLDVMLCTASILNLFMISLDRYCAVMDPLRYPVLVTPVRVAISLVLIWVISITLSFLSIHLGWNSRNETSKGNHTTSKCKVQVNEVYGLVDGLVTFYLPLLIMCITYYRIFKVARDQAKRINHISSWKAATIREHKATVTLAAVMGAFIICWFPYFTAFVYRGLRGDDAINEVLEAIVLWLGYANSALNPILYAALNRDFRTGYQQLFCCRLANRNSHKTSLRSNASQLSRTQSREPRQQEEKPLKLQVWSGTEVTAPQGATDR
Procedure, shortened: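 CHO-K1 cells expressing human recombinant H2 receptor, 50 mM phosphate buffer pH 7.4; compounds incubated with 0.1 nM [125I]aminopotentidine for 120 min at 25 °C. Nonspecific binding defined with 3 μM tiotidine; specifically bound radioligand counted after filtration and washing.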

[4] = target: T4, human recombinant serotonin (5-Hydroxytryptamine) 5-HT2A receptor (Homo sapiens, UniProt P28223); assay: Serotonin 5-HT2A radioligand binding ([3H]Ketanserin); details: for inhibition at 1 µM: read-out: Inhibition of ligand binding, Serotonin 5-HT2A (percent inhibition of specific binding), compound at 1 μM
T4 construct: expressed in transfected cells; host or cells: Chinese hamster ovary (CHO-K1) cells
T4 sequence (P28223 whole entry): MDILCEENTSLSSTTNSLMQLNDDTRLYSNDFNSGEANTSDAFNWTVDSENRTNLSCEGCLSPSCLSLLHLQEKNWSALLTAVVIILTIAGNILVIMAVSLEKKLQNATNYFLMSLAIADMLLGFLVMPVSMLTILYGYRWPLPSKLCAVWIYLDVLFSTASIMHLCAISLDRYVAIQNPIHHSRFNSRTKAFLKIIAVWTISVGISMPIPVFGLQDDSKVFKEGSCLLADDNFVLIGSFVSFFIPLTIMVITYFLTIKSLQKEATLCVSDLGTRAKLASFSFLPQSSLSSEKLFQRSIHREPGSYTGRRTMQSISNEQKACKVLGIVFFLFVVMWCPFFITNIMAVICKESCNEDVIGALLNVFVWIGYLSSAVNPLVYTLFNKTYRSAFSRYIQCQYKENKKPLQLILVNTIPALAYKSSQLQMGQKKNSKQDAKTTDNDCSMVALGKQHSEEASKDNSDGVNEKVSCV
Method: Compounds of the invention were incubated with 0.5 nM [^3H]Ketanserin for 60 min. at 25° C. Non-specific binding was estimated in the presence of 1 μM Mianserin. Receptor proteins were filtered and washed, the filters were then counted to determine [^3H]Ketanserin specifically bound.

| SMILES | inhibition at 0.1 µM ([1]; compound at 0.1 μM) [%] | inhibition at 1 µM [1] [%] | Histamine Binding (1 μM) H1, percent inhibition of specific binding (histamine receptor H1; 1 μM) [%] | inhibition at 1 µM (histamine receptor H1) [%] | inhibition at 1 µM [2] [%] | inhibition at 1 µM [3] [%] | inhibition at 0.1 µM ([4]; read-out: Inhibition of ligand binding, Serotonin 5-HT2A (percent inhibition of specific binding), compound at 0.1 μM) [%] | inhibition at 1 µM [4] [%] |
| --- | --- | --- | --- | --- | --- | --- | --- | --- |
| CN1CCc2c(c3cc(Cl)ccc3n2/C=C(/c2ccc(F)cc2)C2CC2)C1 [Compound 110, (E)-8-chloro-5-(2-cyclopropyl-2-(4-fluorophenyl)vinyl)-2,3,4,5-tetrahydro-2-methyl-1H-pyrido[4,3-b]indole] | 99 | 101 | 83 | 77 | 92 | 102 | 102 | 98 |
| COc1ccc(C(C)(O)Cn2c3c(c4cc(Cl)ccc42)CN(C)CC3)cc1 (stereo not shown) [Compound 57, 1-(8-chloro-1,2,3,4-tetrahydro-2-methylpyrido[4,3-b]indol-5-yl)-2-(4-methoxyphenyl)propan-2-ol] |  | 86 |  | 41 | 108 | 82 |  | 95 |
